Holding throughout (type): cell-based
The test system of experiment [1] is Acinetobacter baumannii FADDI-AB030. The experiment in a line: microbe, parasite or virus in culture. As to conditions: FADDI-AB030. Summed up: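 Lipopeptide TFA salts tested against the multidrug-resistant clinical isolate by CLSI (M100-S24) broth microdilution in cation-adjusted Mueller-Hinton broth, with polymyxin B sulphate as control; MIC read.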
The subject of experiment [2] is Pseudomonas aeruginosa ATCC 27853. Particulars: ATCC 27853. The method, boiled down: (§1)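 Lipopeptide TFA salts were serially diluted in cation-adjusted Mueller-Hinton broth, inoculated with polymyxin-susceptible Gram-negative bacteria and scored for MIC according to CLSI guidance (M100-S24). Polymyxin B sulphate was included as comparator.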
Experiment [3] concerns Pseudomonas aeruginosa FADDI-PA022. Particulars: FADDI-PA022. The method, boiled down: as §1
The subject of experiment [4] is Enterobacter cloacae FADDI-EC003. Particulars: FADDI-EC003. The method, boiled down: as §1
Experiment [5] has as its system Klebsiella pneumoniae FADDI-KP032. As to conditions: FADDI-KP032. Summed up:
as §1

Experiment [6] deals with Enterobacter cloacae FADDI-EC001. As to conditions: FADDI-EC001. The method, boiled down: (§2)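 In cation-adjusted Mueller-Hinton broth, each lipopeptide (TFA salt) was titrated against the bacteria by microdilution and the minimum inhibitory concentration recorded per CLSI M100-S24; polymyxin B sulphate ran in parallel.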
Experiment [7] has as its system Acinetobacter baumannii ATCC 17978. Particulars: ATCC 17978. Summed up: as §1
For experiment [8], the system named is Klebsiella pneumoniae Kp BM1. Particulars: Kp BM1. The method, boiled down:
as §2

Experiment [9] concerns Acinetobacter baumannii FADDI-AB034. Particulars: FADDI-AB034. The method, boiled down: as §1
The test system of experiment [10] is Pseudomonas aeruginosa FADDI-PA01. Particulars: FADDI-. The method, boiled down:
as §1

The test system of experiment [11] is Klebsiella pneumoniae FADDI-KP022. As to conditions: FADDI-KP022. Summed up:
as §1

Experiment [12] deals with Enterobacter cloacae FADDI-EC006. As to conditions: FADDI-EC006. Summed up: as §1
Experiment [13] relates to Pseudomonas aeruginosa FADDI-PA038. Particulars: FADDI-PA038. Summed up:
as §1

≈ marks a conversion by molar mass, not a printed value. Where a SMILES comes first, the peptide text is derived from it. Bridges are numbered along the chain shown (N, C = ends). [ ]: non-standard residue; d: D form. The star is where a group is joined. Pyrrole2carbonyl(4,5-Br2) = O=C(c1cc(Br)c(Br)[nH]1)*; Benzothiazole(5-carbonyl) = O=C(c1ccc2scnc2c1)*; X62 = O=C(c1cc(Br)c(Br)s1)*; X1 = O=C(c1ncc(Cl)cc1Cl)*; X39 = O=C(c1noc2ccccc12)*; X13 = O=C(c1ccnc(Br)c1)*; X29 = O=C(c1cc(Cl)ccn1)*; Dab = NCC[C@H](N)C(=O)O; Abu = CC[C@H](N)C(=O)O; Dap = NC[C@H](N)C(=O)O

Turning to `CC[C@@H]1NC(=O)[C@@H](CC(C)C)NC(=O)[C@H](CCN)NC(=O)[C@@H](NC(=O)[C@H](CN)NC(=O)[C@@H](NC(=O)[C@H](CCN)NC(=O)c2cc(Br)c(Br)[nH]2)[C@@H](C)O)CCNC(=O)[C@H]([C@@H](C)O)NC(=O)[C@H](CCN)NC(=O)[C@H](CCN)NC1=O` [Compound 77] ({Pyrrole2carbonyl(4,5-Br2)}-[Dab]T[Dap][Dab][Dab][dL][Abu][Dab][Dab]T; lactam 4-C), the Minimum inhibitory concentration in [1] worked out at 0.25 µg/mL (≈ 0.202 µM); in experiment [2], 0.25 µg/mL (≈ 0.202 µM); in [3], 0.5 µg/mL (≈ 0.404 µM); in experiment [4], 0.25 µg/mL (≈ 0.202 µM); in [5], 0.25 µg/mL (≈ 0.202 µM); in [6] it was 0.25 µg/mL (≈ 0.202 µM). The Minimum inhibitory concentration in experiment [7] is 0.5 µg/mL (≈ 0.404 µM); in experiment [8], less than 0.125 µg/mL; in experiment [9], 0.25 µg/mL (≈ 0.202 µM); in [10], 0.25 µg/mL (≈ 0.202 µM); in experiment [11], less than 0.125 µg/mL; in experiment [12], less than 0.125 µg/mL. In experiment [13], the Minimum inhibitory concentration was 1 µg/mL (≈ 0.808 µM).
For `CC(C)C[C@H]1NC(=O)[C@H](CCN)NC(=O)[C@@H](NC(=O)[C@H](CN)NC(=O)[C@@H](NC(=O)[C@H](CCN)NC(=O)c2cc(Cl)ccn2)[C@@H](C)O)CCNC(=O)[C@H]([C@@H](C)O)NC(=O)[C@H](CCN)NC(=O)[C@H](CCN)NC(=O)[C@H](C)NC1=O` [Compound 97] (X29-[Dab]T[Dap][Dab][Dab][dL]A[Dab][Dab]T; lactam 4-C), the Minimum inhibitory concentration in [1] is 2 µg/mL (≈ 1.8 µM); in [2], 0.25 µg/mL (≈ 0.225 µM); in experiment [3], 0.25 µg/mL (≈ 0.225 µM); in experiment [4], 0.25 µg/mL (≈ 0.225 µM); in experiment [5], 0.5 µg/mL (≈ 0.449 µM); in experiment [6], less than 0.125 µg/mL. In addition, the Minimum inhibitory concentration in [7] was 2 µg/mL (≈ 1.8 µM); in experiment [8], 0.25 µg/mL (≈ 0.225 µM); in [9], 2 µg/mL (≈ 1.8 µM); in [10], 0.25 µg/mL (≈ 0.225 µM); in experiment [11] it was less than 0.125 µg/mL; in experiment [12], 0.25 µg/mL (≈ 0.225 µM). In [13], this compound showed a Minimum inhibitory concentration of 2 µg/mL (≈ 1.8 µM).
Regarding `CC[C@@H]1NC(=O)[C@@H](CC(C)C)NC(=O)[C@H](CCN)NC(=O)[C@@H](NC(=O)[C@H](CN)NC(=O)[C@@H](NC(=O)[C@H](CCN)NC(=O)c2cc(Br)c(Br)s2)[C@@H](C)O)CCNC(=O)[C@H]([C@@H](C)O)NC(=O)[C@H](CCN)NC(=O)[C@H](CCN)NC1=O` [Compound 83] (X62-[Dab]T[Dap][Dab][Dab][dL][Abu][Dab][Dab]T; lactam 4-C), the Minimum inhibitory concentration is less than 0.125 µg/mL in [1]; 0.25 µg/mL (≈ 0.199 µM) in experiment [2]; 0.25 µg/mL (≈ 0.199 µM) in [3]; 0.25 µg/mL (≈ 0.199 µM) in experiment [4]; 0.25 µg/mL (≈ 0.199 µM) in experiment [5]; 0.5 µg/mL (≈ 0.398 µM) in experiment [6]. Moreover, the Minimum inhibitory concentration in experiment [7] was 0.25 µg/mL (≈ 0.199 µM); in experiment [8], less than 0.125 µg/mL; in experiment [9], less than 0.125 µg/mL; in experiment [10], 0.25 µg/mL (≈ 0.199 µM); in experiment [11] it was less than 0.125 µg/mL; in [12], less than 0.125 µg/mL. In addition, the Minimum inhibitory concentration in experiment [13] is 0.5 µg/mL (≈ 0.398 µM).
As for `CC[C@@H]1NC(=O)[C@@H](CC(C)C)NC(=O)[C@H](CCN)NC(=O)[C@@H](NC(=O)[C@H](CN)NC(=O)[C@@H](NC(=O)[C@H](CCN)NC(=O)c2ccc3scnc3c2)[C@@H](C)O)CCNC(=O)[C@H]([C@@H](C)O)NC(=O)[C@H](CCN)NC(=O)[C@H](CCN)NC1=O` [Compound 53] ({Benzothiazole(5-carbonyl)}-[Dab]T[Dap][Dab][Dab][dL][Abu][Dab][Dab]T; lactam 4-C; N-terminus assumed), the Minimum inhibitory concentration in experiment [1] is 1 µg/mL (≈ 0.871 µM); in experiment [2], 0.5 µg/mL (≈ 0.435 µM); in experiment [3], 0.25 µg/mL (≈ 0.218 µM); in experiment [4], 0.25 µg/mL (≈ 0.218 µM); in experiment [5] it was less than 0.125 µg/mL; in experiment [6], less than 0.125 µg/mL. Moreover, the Minimum inhibitory concentration in experiment [7] was 2 µg/mL (≈ 1.74 µM); in experiment [8], 0.5 µg/mL (≈ 0.435 µM); in [9] it was 2 µg/mL (≈ 1.74 µM); in experiment [10], 0.5 µg/mL (≈ 0.435 µM); in experiment [11], less than 0.125 µg/mL; in experiment [12], 2 µg/mL (≈ 1.74 µM). Besides, the Minimum inhibitory concentration in experiment [13] worked out at 0.5 µg/mL (≈ 0.435 µM).
On to `CC(C)C[C@H]1NC(=O)[C@H](CCN)NC(=O)[C@@H](NC(=O)[C@H](CN)NC(=O)[C@@H](NC(=O)[C@H](CCN)NC(=O)c2ncc(Cl)cc2Cl)[C@@H](C)O)CCNC(=O)[C@H]([C@@H](C)O)NC(=O)[C@H](CCN)NC(=O)[C@H](CCN)NC(=O)[C@H](C(C)C)NC1=O` [Compound 13] (X1-[Dab]T[Dap][Dab][Dab][dL]V[Dab][Dab]T; lactam 4-C), for which the Minimum inhibitory concentration in [1] is 0.5 µg/mL (≈ 0.425 µM); in experiment [2] it was 0.5 µg/mL (≈ 0.425 µM); in [3] it was 0.5 µg/mL (≈ 0.425 µM); in experiment [4] it was less than 0.125 µg/mL; in [5] it was 0.25 µg/mL (≈ 0.213 µM); in experiment [6], less than 0.125 µg/mL. For the same compound, the Minimum inhibitory concentration in [7] was 1 µg/mL (≈ 0.851 µM); in experiment [8], 0.25 µg/mL (≈ 0.213 µM); in [9] it was 2 µg/mL (≈ 1.7 µM); in experiment [10] it was 0.5 µg/mL (≈ 0.425 µM); in [11], 0.25 µg/mL (≈ 0.213 µM); in experiment [12] it was less than 0.125 µg/mL. In experiment [13], the Minimum inhibitory concentration turned out to be 1 µg/mL (≈ 0.851 µM).
As for `CC[C@@H]1NC(=O)[C@@H](CC(C)C)NC(=O)[C@H](CCN)NC(=O)[C@@H](NC(=O)[C@H](CN)NC(=O)[C@@H](NC(=O)[C@H](CCN)NC(=O)c2ccnc(Br)c2)[C@@H](C)O)CCNC(=O)[C@H]([C@@H](C)O)NC(=O)[C@H](CCN)NC(=O)[C@H](CCN)NC1=O` [Compound 25] (X13-[Dab]T[Dap][Dab][Dab][dL][Abu][Dab][Dab]T; lactam 4-C), the Minimum inhibitory concentration in experiment [1] was 1 µg/mL (≈ 0.854 µM); in experiment [2], 0.25 µg/mL (≈ 0.213 µM); in experiment [3], 0.25 µg/mL (≈ 0.213 µM); in experiment [4], less than 0.125 µg/mL; in experiment [5] it was 0.25 µg/mL (≈ 0.213 µM); in experiment [6] it was 0.5 µg/mL (≈ 0.427 µM). Further, the Minimum inhibitory concentration in [7] is 1 µg/mL (≈ 0.854 µM); in [8], 0.25 µg/mL (≈ 0.213 µM); in experiment [9], 1 µg/mL (≈ 0.854 µM); in [10] it was 0.25 µg/mL (≈ 0.213 µM); in experiment [11], less than 0.125 µg/mL; in experiment [12] it was 2 µg/mL (≈ 1.71 µM). The compound also gave a Minimum inhibitory concentration in experiment [13] of 1 µg/mL (≈ 0.854 µM).
As for `CC[C@@H]1NC(=O)[C@@H](CC(C)C)NC(=O)[C@H](CCN)NC(=O)[C@@H](NC(=O)[C@H](CN)NC(=O)[C@@H](NC(=O)[C@H](CCN)NC(=O)c2noc3ccccc23)[C@@H](C)O)CCNC(=O)[C@H]([C@@H](C)O)NC(=O)[C@H](CCN)NC(=O)[C@H](CCN)NC1=O` [Compound 75] (X39-[Dab]T[Dap][Dab][Dab][dL][Abu][Dab][Dab]T; lactam 4-C), the Minimum inhibitory concentration is 0.5 µg/mL (≈ 0.442 µM) in [1]; 0.5 µg/mL (≈ 0.442 µM) in [2]; 0.5 µg/mL (≈ 0.442 µM) in experiment [3]; less than 0.125 µg/mL in experiment [4]; 0.25 µg/mL (≈ 0.221 µM) in experiment [5]; less than 0.125 µg/mL in experiment [6]. In addition, the Minimum inhibitory concentration in experiment [7] was 1 µg/mL (≈ 0.883 µM); in [8], 0.25 µg/mL (≈ 0.221 µM); in experiment [9], 0.5 µg/mL (≈ 0.442 µM); in experiment [10], 0.5 µg/mL (≈ 0.442 µM); in [11], less than 0.125 µg/mL; in experiment [12], 1 µg/mL (≈ 0.883 µM). Moreover, the Minimum inhibitory concentration in [13] turned out to be 1 µg/mL (≈ 0.883 µM).
